Marks after values point to notes of the source that are not given here.
How the values were obtained:
[1] = tested on: human non-small-cell lung cancer cell line A549; test: MTT cell growth inhibition, A549; type: cell-based; details: Homo sapiens; A549, MTT assay, 72 h; read-out: IC50, growth of tumor cell line
Source text: (§3) Experimental method: Cell lines (human non-small-cell lung cancer cell line A549, human colon cancer cell line LOVO, human nasopharyngeal carcinoma cell line CNE-2, human liver cancer cell line HepG2, human cervical carcinoma cell line Hela, human breast cancer cell lines MCF-7 and MDA-MB-231, human gastric carcinoma cell line NCI-N87, human prostatic cancer cell lines PC-3 and DU145, human leukemia cell line K562, human melanoma cell line A375, human neuroblastoma cell line SH-SY5H, human promyelocytic leukemia cell line HL-60, 5-FU-resistant human hepatocellular carcinoma cell line BEL-7402/5-Fu, doxorubicin-resistant hepatocellular carcinoma cell line HepG2/ADM, doxorubicin-resistant human breast cancer cell lines MCF-7/ADR) at logarithmic phase were resuspended in RPMI 1640 medium (containing 10% fetal bovine serum, 100 U/mL penicillin-streptomycin). Then, 100 μL of cells (cell concentration was 5×10^5/mL) were seeded into 96 wells plate. After 24 h incubation at 37° C. with 5% CO2, tested compounds were added (the control group without compound) for an additional 72 h incubation. After that, 30 μL of MTT [3-(4,5-Dimethylthiazol-2-yl)-2,5-diphenyltetrazolium bromide] solution (5 mg/mL) was added into each well and incubated for another 4 h at 37° C. and then the formazan crystals were solubilized with 100 μL DMSO. Finally, absorbance of each well was determined at 570 nm by a microplate reader (Thermo).
(§4) The concentration required to inhibit cell growth by 50% (IC50) was calculated from survival curves.

[2] = tested on: human colon cancer cell line LOVO; test: MTT cell growth inhibition, LOVO; type: cell-based; details: Homo sapiens; LOVO (FAPα positive), MTT assay, 72 h; read-out: IC50, growth of tumor cell line
[3] = tested on: human nasopharyngeal carcinoma cell line CNE-2; test: MTT cell growth inhibition, CNE-2; type: cell-based; details: Homo sapiens; CNE-2, MTT assay, 72 h; read-out: IC50, growth of tumor cell line
[4] = tested on: human liver cancer cell line HepG2; test: MTT cell growth inhibition, HepG2; type: cell-based; details: Homo sapiens; HepG2, MTT assay, 72 h; read-out: IC50, growth of tumor cell line
[5] = tested on: human cervical carcinoma cell line Hela; test: MTT cell growth inhibition, Hela; type: cell-based; details: Homo sapiens, MTT assay, 72 h, read-out: IC50, growth of tumor cell line
[6] = tested on: human breast cancer cell line MCF-7; test: MTT cell growth inhibition, MCF-7; type: cell-based; details: Homo sapiens, MCF7; MCF-7, MTT assay, 72 h; read-out: IC50, growth of tumor cell line
[7] = tested on: human breast cancer cell line MDA-MB-231; test: MTT cell growth inhibition, MDA-MB-231; type: cell-based; details: Homo sapiens; MDA-MB-231, MTT assay, 72 h; read-out: IC50, growth of tumor cell line
Source text: as §3, §4

[8] = tested on: human gastric carcinoma cell line NCI-N87; test: MTT cell growth inhibition, NCI-N87; type: cell-based; details: Homo sapiens; NCI-N87, MTT assay, 72 h; read-out: IC50, growth of tumor cell line
[9] = tested on: human prostatic cancer cell line PC-3; test: MTT cell growth inhibition, PC-3; type: cell-based; details: Homo sapiens; PC-3, MTT assay, 72 h; read-out: IC50, growth of tumor cell line
Source text: as §3, §4

[10] = tested on: human prostatic cancer cell line DU145; test: MTT cell growth inhibition, DU-145; type: cell-based; details: Homo sapiens; DU-145, MTT assay, 72 h; read-out: IC50, growth of tumor cell line
Source text: as §3, §4

[11] = tested on: human leukemia cell line K562; test: MTT cell growth inhibition, K562; type: cell-based; details: Homo sapiens; K562, MTT assay, 72 h; read-out: IC50, growth of tumor cell line
[12] = tested on: human melanoma cell line A375; test: MTT cell growth inhibition, A375; type: cell-based; details: Homo sapiens, A-375; A375, MTT assay, 72 h; read-out: IC50, growth of tumor cell line
Source text: as §3, §4

[13] = tested on: human neuroblastoma cell line SH-SY5H; test: MTT cell growth inhibition, SH-SY5H; type: cell-based; details: Homo sapiens, Neuroblastoma cell, MTT assay, 72 h, read-out: IC50, growth of tumor cell line
Source text: as §3, §4

[14] = tested on: human promyelocytic leukemia cell line HL-60; test: MTT cell growth inhibition, HL-60; type: cell-based; details: Homo sapiens; HL-60, MTT assay, 72 h; read-out: IC50, growth of tumor cell line
Source text: as §3, §4

[15] = tested on: 5-FU-resistant human hepatocellular carcinoma cell line BEL-7402/5-Fu; test: MTT cell growth inhibition, BEL-7402/5-Fu; type: cell-based; details: Homo sapiens, Bel7402/5-FU, MTT assay, 72 h, read-out: IC50, growth of tumor cell line
[16] = tested on: doxorubicin-resistant hepatocellular carcinoma cell line HepG2/ADM; test: MTT cell growth inhibition, HepG2/ADM; type: cell-based, human; details: Homo sapiens, MTT assay, 72 h, read-out: IC50, growth of tumor cell line
Source text: as §3, §4

[17] = tested on: doxorubicin-resistant human breast cancer cell lines MCF-7/ADR; test: MTT cell growth inhibition, MCF-7/ADR; type: cell-based; details: Homo sapiens, NCI/ADR-RES, MTT assay, 72 h, read-out: IC50, growth of tumor cell line
Source text: as §3, §4

MDA-MB-231 xenografts = MDA-MB-231 xenografts in nude mice; type: in vivo, BALB/nu/nu mice; details: MDA-MB-231 xenograft nude mice; for Anti-tumor rate (%) / Body weight (g) Post-dose / Tumor weight: 1 mg/kg i.p. every two days, 8 administrations; for Body weight (g) Pre-dose: before dosing
Procedure: (§1) Experimental method: The MDA-MB-231 cells at logarithmic phase were digested and washed twice with PBS. Then, 100 μL cells (1×10^7) were inoculated subcutaneously on the backs of female BALB/nu/nu mice. After tumors grew to 70˜100 mm^3, the mice were divided randomly into saline group (control group), vinca alkaloids groups (VLB, CCRB, CCFN, CCXJ) and vinca alkaloid derivatives groups (JJ-CCJ, BX-CCJ, JJ-CCRB, BX-CCRB, JJ-CCFN, BX-CCFN, JJ-CCXJ and BX-CCXJ), with six mice per group. 1 mg/kg drugs were injected intraperitoneally every two days, meanwhile body weight and tumor sizes were measured. Experiment was ended after 8 times of drug administration, then tumor and organs were stripped. Tumor volumes were measured using the following formula: V=½(ab^2), whereas a refers to the longest diameter and b is the shortest diameter.

HepG2 xenografts = HepG2 xenografts in nude mice; type: in vivo; details: HepG2 xenograft nude mice; for Anti-tumor rate (%) / Body weight (g) Post-dose / Tumor weight: 1 mg/kg; for Body weight (g) Pre-dose: before dosing
Procedure: as §1
(§2) Tumor xenograft models of HepG2, LOVO, K562 and HL-60 cell lines were performed as the method described above.

LOVO xenografts = LOVO xenografts in nude mice; type: in vivo; details: LOVO xenograft nude mice; for Anti-tumor rate (%) / Body weight (g) Post-dose / Tumor weight: 1 mg/kg; for Body weight (g) Pre-dose: before dosing
Procedure: as §1, §2

K562 xenografts = K562 xenografts in nude mice; type: in vivo; details: K562 xenograft nude mice; for Anti-tumor rate (%) / Body weight (g) Post-dose / Tumor weight: 1 mg/kg; for Body weight (g) Pre-dose: before dosing
Procedure: as §1, §2

HL-60 xenografts = HL-60 xenografts in nude mice; type: in vivo; details: HL-60 xenograft nude mice; for Anti-tumor rate (%) / Body weight (g) Post-dose / Tumor weight: 1 mg/kg; for Body weight (g) Pre-dose: before dosing
Procedure: as §1, §2

Compound | IC50 [1] | IC50 [2] | IC50 [3] | IC50 [4] | IC50 [5] | IC50 [6] | IC50 [7] | IC50 [8] | IC50 [9] | IC50 [10] | IC50 [11] | IC50 [12] | IC50 [13] | IC50 [14] | IC50 [15] | IC50 [16] | IC50 [17] | Anti-tumor rate (%) (MDA-MB-231 xenografts) | Body weight (g) Post-dose (MDA-MB-231 xenografts) | Tumor weight (MDA-MB-231 xenografts) | further results
CC[C@]1(O)C[C@@H]2CN(CCc3c([nH]c4ccccc34)[C@@](C(=O)OC)(c3cc4c(cc3OC)N[C@H]3[C@@](O)(C(=O)NN)[C@H](O)[C@]5(CC)C=CCN6CC[C@]43[C@@H]65)C2)C1 [JJ-CCXJ, hydrazinolyzed vincristine] | 4.34 ± 0.42 nM | 24.3 ± 1.09 nM | 8.37 ± 2.7 nM | 12.3 ± 1.96 nM | 23.6 ± 2.97 nM | 26.9 ± 4.38 nM | 7.37 ± 1.18 nM | 10.7 ± 1.78 nM | 27.1 ± 2.18 nM | 18.4 ± 3.67 nM | 12.1 ± 1.67 nM | 15.6 ± 2.38 nM | 18.7 ± 2.54 nM | 32.5 ± 3.51 nM | 106 ± 5.87 nM | 44.9 ± 3.67 nM | 63.2 ± 7.74 nM | 75.86** % | 17.3 ± 1.2 g | 0.63 ± 0.15 g | Body weight (g) Pre-dose (MDA-MB-231 xenografts): 21.1 ± 2.5 g; Anti-tumor rate (%) (HepG2 xenografts): 79.21** %; Body weight (g) Post-dose (HepG2 xenografts): 17.8 ± 0.9 g; Tumor weight (HepG2 xenografts): 0.53 ± 0.12 g; Body weight (g) Pre-dose (HepG2 xenografts): 22.0 ± 2.1 g; Anti-tumor rate (%) (LOVO xenografts): 73.52** %; Body weight (g) Post-dose (LOVO xenografts): 17.5 ± 1.3 g; Tumor weight (LOVO xenografts): 0.76 ± 0.16 g; Body weight (g) Pre-dose (LOVO xenografts): 22.9 ± 2.3 g; Anti-tumor rate (%) (K562 xenografts): 60.12** %; Body weight (g) Post-dose (K562 xenografts): 17.1 ± 0.3 g; Tumor weight (K562 xenografts): 0.67 ± 0.22 g; Body weight (g) Pre-dose (K562 xenografts): 22.4 ± 1.7 g; Anti-tumor rate (%) (HL-60 xenografts): 59.62** %; Body weight (g) Post-dose (HL-60 xenografts): 16.3 ± 0.6 g; Tumor weight (HL-60 xenografts): 0.84 ± 0.13 g; Body weight (g) Pre-dose (HL-60 xenografts): 19.7 ± 1.5 g
CC[C@]12C=CCN3CC[C@@]4(c5cc([C@@]6(C(=O)OC)C[C@@H]7C[C@@H](C(C)(F)F)CN(Cc8c6[nH]c6ccccc86)C7)c(OC)cc5N(C)[C@H]4[C@@](O)(C(=O)OC)[C@@H]1OC(C)=O)[C@@H]32 [Vinflunine, reference compound] | 137 ± 4.1 nM | 146 ± 7.21 nM | 67.4 ± 3.42 nM | 32.1 ± 2.17 nM | 56.7 ± 4.47 nM | 77 ± 2.74 nM | 61.3 ± 7.44 nM | 57.5 ± 3.95 nM | 31.1 ± 5.34 nM | 22.3 ± 1.67 nM | 19.3 ± 2.48 nM | 39.8 ± 5.29 nM | 52.4 ± 6.81 nM | 41.8 ± 6.85 nM | 45.7 ± 3.98 nM | 67.1 ± 4.39 nM | 154 ± 3.95 nM |  |  |  | 
CCC1=C[C@@H]2CN(C1)Cc1c([nH]c3ccccc13)[C@@](C(=O)OC)(c1cc3c(cc1OC)N(C)[C@H]1[C@@](O)(C(=O)NN)[C@H](O)[C@]4(CC)C=CCN5CC[C@]31[C@@H]54)C2 [JJ-CCRB, hydrazinolyzed vinorelbine] | 73.1 ± 2.36 nM | 121 ± 10.3 nM | 100 ± 5.9 nM | 89.31 ± 0.71 nM | 61.3 ± 3.12 nM | 122 ± 5.75 nM | 101 ± 7.65 nM | 89 ± 3.34 nM | 65.9 ± 3.05 nM | 60.4 ± 7.01 nM | 49.7 ± 3.39 nM | 20.4 ± 2.85 nM | 32.9 ± 3.27 nM | 46.8 ± 5.41 nM | 143 ± 8.57 nM | 182 ± 4.38 nM |  | 77.39** % | 16.7 ± 1.4 g | 0.59 ± 0.18 g | Body weight (g) Pre-dose (MDA-MB-231 xenografts): 21.0 ± 2.7 g; Anti-tumor rate (%) (HepG2 xenografts): 75.29** %; Body weight (g) Post-dose (HepG2 xenografts): 17.0 ± 0.8 g; Tumor weight (HepG2 xenografts): 0.63 ± 0.29 g; Body weight (g) Pre-dose (HepG2 xenografts): 21.9 ± 1.6 g; Anti-tumor rate (%) (LOVO xenografts): 69.69** %; Body weight (g) Post-dose (LOVO xenografts): 16.4 ± 0.7 g; Tumor weight (LOVO xenografts): 0.87 ± 0.16 g; Body weight (g) Pre-dose (LOVO xenografts): 23.2 ± 2.1 g; Anti-tumor rate (%) (K562 xenografts): 59.52** %; Body weight (g) Post-dose (K562 xenografts): 18.2 ± 0.5 g; Tumor weight (K562 xenografts): 0.68 ± 0.20 g; Body weight (g) Pre-dose (K562 xenografts): 21.8 ± 1.4 g; Anti-tumor rate (%) (HL-60 xenografts): 65.38** %; Body weight (g) Post-dose (HL-60 xenografts): 17.1 ± 0.3 g; Tumor weight (HL-60 xenografts): 0.72 ± 0.21 g; Body weight (g) Pre-dose (HL-60 xenografts): 19.5 ± 1.3 g
